# Entries after “also recorded” stand apart in the source; their conditions may differ. Counter-ions that a name gives are not always drawn. Like-named read-outs stand apart in the source and are kept apart here.
# Key:
# [1] = Solubility of CBD and its analogs in Tocrisolve emulsion; assay type: physicochemical; details: for Maximum solubility achieved in Tocrisolve: as the substance itself
# Description: Formulations: 0.5% w/v CBD equivalent in Tocrisolve emulsion.
# Tocrisolve composition: […] emulsion composed of a 1:4 ratio of soya oil/water that is emulsified with the block co-polymer Pluronic F68. Manufacturing process for the Tocrisolve emulsion: • Add accurately weighed amount of drug a glass vial. • Add required volume of Torcisolve blank emulsion to each vial • Vortex each vial for 5 minutes. • Sonicate each vial for 10 minutes. • Centrifuge each vial for 5 minutes at 9000 rpm at 25° C. • Collect the supernatant and analyze for CBD, CBD-Val Mono and CBD-Val-HS mono as applicable.
# [2] = In vivo eye tissue levels 90 min after topical application in Tocrisolve emulsion (Examples 12-14); design: species or system New Zealand albino rabbits; details: for concentration at 90 min: male, New Zealand albino, 90 min post topical 50 μL Tocrisolve emulsion; for Penetration into the ocular tissues, in words (Example 14): topical Tocrisolve emulsion
# Description: Conscious male New Zealand albino rabbits were used. The formulations were applied topically into the rabbits eyes (50 μL containing the equivalent of 250 μg CBD) in Tocrisolve® emulsion formulations as described in Example 11. The animals were sacrificed 90 min. after drug application and the eye tissues harvested for analysis.
# The same procedure was followed as shown under Example 12. Additional CBD analogs were tested in this example. In this example the tissue levels of both free CBD and intact analog were determined.
# Formulations: Fifty microlitres of 0.5% w/v CBD in Tocrisolve emulsion (Dose: 0.25 mg)
# Animal model: Conscious male new Zealand albino rabbits, Duration of the study: 90 min.
# Aqueous humor, Vitreous humor, Retina-Choroid and Iris-Ciliary bodies analysed for parent compound as well as CBD.
# Formulations: Fifty microlitres of 0.5% w/v Tocrisolve emulsion formulations (Dose: 0.25 mg)
# Animal model: Conscious male new Zealand albino rabbits, Duration of the study: 90 min
# [3] = assay type: physicochemical; details: for Concentration of CBD / Concentration of Δ^9-THC: CBD incubated, 37° C.; for Stability under acidic (gastric juice) conditions, in words: pH 1.2, 37° C.; for Stability under physiologic / intestinal juice conditions, in words: pH 7.4, 37° C.
# Description: The stability CBD and CBD analogs (CBD-Mono-VHS and CBD-Di-VHS) was evaluated under acidic and alkaline conditions to simulate exposure to gastric and intestinal fluids. The procedure is outlined as follows: • 1. Stock solution of 5 mg/mL CBD, CBD-Mono-Val-Mono HS, CBD-Di-Val-Di HS was prepared. • 2. Simulated Gastric Fluid (pH 1.2)+1% (SDS) was prepared and kept in 37° C. water bath. • 3. Physiological buffer (pH 7.4)+1% SDS was prepared and kept in 37° C. water bath. • 4. 100 μL of CBD, CBD-Mono-Val-Mono HS or CBD-Di-Val-Di-HS stock in acetonitrile (equivalent to 500 μg) was spiked into separate vials containing 5 ml of either pH 1.2 and 7.4. • 5. At each time point, 100 μL of the solution was withdrawn. • 6. 900 μL acetonitrile was added to each sample. • 7. All samples centrifuged at 4° C. and 13,000 rpm. • 8. 100 μL of the supernatant was withdrawn; to this 100 μL of supernatant, 900 μL of acetonitrile was added and placed in LC vials for analysis. Tables 9, 10 and 11, and FIGS. 7a, 7b, 18, and 19 show the results.
# [4] = test system: cisplatin-induced tactile allodynia; experiment: Cisplatin-induced tactile allodynia model, electronic von Frey (Examples 23, 24); assay type: in vivo, C57BL/6 mice; details: mice
# [5] = test system: morphine place preference; experiment: Morphine conditioned place preference, model of addiction (Example 25); details: mice
# [6] = Bioavailability of CBD from suppository formulations containing CBD-Val-HS (Example 15); assay type: in vivo; details: cannulated rats, rectal suppository; PEG 1000 (7 mg) vs Wecobe W (6.125 or 4.625 mg)
# Description: CBD-Val-HS was formulated in both lipophilic (Wecobe W base) and hydrophilic (PEG 1000 base) suppository formulations. The formulations were administered to cannulated rats (100 mg suppository per rat) and blood samples were collected, centrifuged and the plasma separated for LC/MS/MS analysis. The amount of CBD in the plasma samples was quantified. The amount of CBD-Val-HS in the plasma samples was not quantified.
# [7] = rabbit eye, 90 min post topical, 250 μg CBD equivalent
compound,measurement,setting,value
"C=C(C)[C@@H]1CCC(C)=C[C@H]1c1c(O)cc(CCCCC)cc1O [CBD, Cannabidiol]",Maximum solubility achieved in Tocrisolve,[1],1.19 % w/v
same,concentration at 90 min,"[2]; retina-choroid, Table 2, rabbit eye, 250 μg CBD equivalent, read-out: Concentration of CBD in Retina Choroid",17.3 ± 6.5 ng/g
same,"Ocular tissue levels of the applied substance, in words (Example 13)","[2]; rabbit eye, 90 min post topical, 0.25 mg CBD",no levels in the tissues at all
same,"Ocular tissue levels, in words (Example 12)",[2]; [7],very low levels in the retina choroid
same,Concentration of CBD,"[3]; Acid (pH 1.2), Time Point 0",656 ng/mL
same,Concentration of Δ^9-THC,"[3]; Acid (pH 1.2), Time Point 0",38 ng/mL
same,Concentration of CBD,"[3]; Acid (pH 1.2), Time Point 15",553 ng/mL
same,Concentration of Δ^9-THC,"[3]; Acid (pH 1.2), Time Point 15",238 ng/mL
same,Concentration of CBD,"[3]; Acid (pH 1.2), Time Point 30",204 ng/mL
same,Concentration of Δ^9-THC,"[3]; Acid (pH 1.2), Time Point 30",243 ng/mL
same,Concentration of CBD,"[3]; Acid (pH 1.2), Time Point 60",111 ng/mL
same,Concentration of Δ^9-THC,"[3]; Acid (pH 1.2), Time Point 60",496 ng/mL
same,Concentration of CBD,"[3]; Acid (pH 1.2), Time Point 90",91 ng/mL
same,Concentration of Δ^9-THC,"[3]; Acid (pH 1.2), Time Point 90",625 ng/mL
same,Concentration of CBD,"[3]; Acid (pH 1.2), Time Point 120",46 ng/mL
same,Concentration of Δ^9-THC,"[3]; Acid (pH 1.2), Time Point 120",454 ng/mL
same,Concentration of CBD,"[3]; Base (pH 7.4), Time Point 0",760 ng/mL
same,Concentration of CBD,"[3]; Base (pH 7.4), Time Point 15",943 ng/mL
same,Concentration of CBD,"[3]; Base (pH 7.4), Time Point 30",1015 ng/mL
same,Concentration of CBD,"[3]; Base (pH 7.4), Time Point 60",1119 ng/mL
same,Concentration of CBD,"[3]; Base (pH 7.4), Time Point 90",1081 ng/mL
same,Concentration of CBD,"[3]; Base (pH 7.4), Time Point 120",975 ng/mL
same,"Conversion to Δ^9-THC under acidic conditions, in words",[3]; acidic conditions,converts to Δ^9-THC
same,"Stability under acidic (gastric juice) conditions, in words",[3],partially converted to THC
same,"Stability under physiologic / intestinal juice conditions, in words",[3],stable
same,"Effect on cisplatin-induced tactile allodynia (eVF paw withdrawal), in words","[4]; Example 23, 1.0 mg/kg CBD in combination with 0.1 mg/kg morphine, IP",did not further alter the anti-allodynic properties
same,"Effect on cisplatin-induced tactile allodynia (eVF paw withdrawal), in words","[4]; Example 23, 1.0 mg/kg IP alone, 45 minutes prior to testing",modest attenuation of CIN
same,"Effect on cisplatin-induced tactile allodynia (eVF paw withdrawal), in words","[4]; Example 23, 2.0 mg/kg CBD in combination with 0.1 mg/kg morphine, IP",attenuated tactile allodynia comparable to 2.5 mg/kg morphine
same,"Effect on cisplatin-induced tactile allodynia (eVF paw withdrawal), in words","[4]; Example 23, 2.0 mg/kg CBD in combination with 2.5 mg/kg morphine, IP",not further enhanced
same,"Effect on cisplatin-induced tactile allodynia (eVF paw withdrawal), in words","[4]; Example 23, 2.0 mg/kg IP alone, 45 minutes prior to testing",ineffective
same,"Effect on morphine place preference, in words","[5]; morphine groups, IP, CBD 2.5-20.0 mg/kg, CBD-val-HS 10.0 mg/kg",dose-dependently decreased preference scores that approached significance at 10 mg/kg CBD; also recorded: showed a tendency to block the addictive effects of morphine
same,"Place preference or aversion of the substance itself, in words","[5]; saline groups, IP, CBD 2.5-20.0 mg/kg, CBD-val-HS 10.0 mg/kg",did not show neither place preference nor aversion
"C=C(C)C1CCC(C)=CC1c1c(OC(=O)CCC(=O)O)cc(CCCCC)cc1OC(=O)CCC(=O)O (stereo not shown) [CBD-HS, CBD-Di-Hemisuccinate]",Maximum solubility achieved in Tocrisolve,[1],1.12 % w/v
same,Maximum solubility achieved in Tocrisolve (In terms of CBD),[1],(0.7) % w/v
same,"Penetration into the ocular tissues, in words (Example 14)",[2]; rabbit eye,not adequate
C=C(C)C1CCC(C)=CC1c1c(OC(=O)[C@@H](NC(=O)CCC(=O)O)C(C)C)cc(CCCCC)cc1OC(=O)[C@@H](NC(=O)CCC(=O)O)C(C)C (stereo partly shown) [CBD-VAL-HS],concentration at 90 min,"[2]; retina-choroid, Table 4, Set 2, rabbit, dose 250 μg, read-out: Analog Concentration, Retina Choroid",142 ± 76 ng/g
C=C(C)C1CCC(C)=CC1c1c(OC(=O)[C@@H](N)C(C)C)cc(CCCCC)cc1OC(=O)[C@@H](N)C(C)C (stereo partly shown) [CBD-Val-HCl],Maximum solubility achieved in Tocrisolve,[1],2.04 % w/v
same,Maximum solubility achieved in Tocrisolve (In terms of CBD),[1],(1.09) % w/v
same,concentration at 90 min,"[2]; retina-choroid, Table 2, rabbit eye, 250 μg CBD equivalent, read-out: Concentration of CBD-Val in Retina Choroid",9.1 ± 1.5 ng/g
same,"Ocular tissue levels, in words (Example 12)",[2]; [7],very low levels in the retina choroid
"C=C(C)C1CCC(C)=CC1c1c(OC(=O)[C@@H](NC(=O)CCC(=O)O)C(C)C)cc(CCCCC)cc1OC(=O)[C@@H](NC(=O)CCC(=O)O)C(C)C (stereo partly shown) [CBD-Val-HS, CBD-Di-Valinate-Di-Hemisuccinate]","Penetration into the ocular tissues, in words (Example 14)",[2]; rabbit eye,not adequate
same,"Plasma levels of CBD, hydrophilic base compared with lipophilic base, in words",[6],Higher levels of CBD
same,"Stability under acidic (gastric juice) conditions, in words",[3],stable
same,"Stability under physiologic / intestinal juice conditions, in words",[3],stable
C=C(C)C1CCC(C)=CC1c1c(OC(=O)[C@@H](NC(=O)CCC(=O)O)C(C)C)cc(CCCCC)cc1OC(=O)[C@@H](NC(=O)CCC(=O)O)C(C)C (stereo partly shown) [CBD-Val-HS],concentration at 90 min,"[2]; aqueous humor, Table 2, rabbit eye, 250 μg CBD equivalent, read-out: Concentration of CBD-Val-HS in Aqueous Humor",24.6 ± 16.2 ng/g
same,concentration at 90 min,"[2]; retina-choroid, Table 2, rabbit eye, 250 μg CBD equivalent, read-out: Concentration of CBD-Val-HS in Retina Choroid",417 ± 114 ng/g
same,concentration at 90 min,"[2]; vitreous humor, Table 2, rabbit eye, 250 μg CBD equivalent, read-out: Concentration of CBD-Val-HS in Vitreous Humor",612 ± 264 ng/g
"C=C(C)C1CCC(C)=CC1c1c(OC(=O)[C@@H](N)C(C)C)cc(CCCCC)cc1OC(=O)[C@@H](N)C(C)C (stereo partly shown) [CBD-di-Val, CBD-Di-Valinate]","Penetration into the ocular tissues, in words (Example 14)",[2]; rabbit eye,not adequate
"CN1CC[C@]23c4c5ccc(O)c4O[C@H]2[C@@H](O)C=C[C@H]3[C@H]1C5.O=S(=O)(O)O [morphine, Morphine sulfate]","Effect on cisplatin-induced tactile allodynia (eVF paw withdrawal), in words","[4]; Example 23, 0.1 mg/kg IP alone, 45 minutes prior to testing",did not affect eVF responses
same,"Effect on cisplatin-induced tactile allodynia (eVF paw withdrawal), in words","[4]; Example 23, 2.5 mg/kg IP alone, 45 minutes prior to testing",fully attenuated tactile allodynia
same,"Effect on cisplatin-induced tactile allodynia (eVF paw withdrawal), in words","[4]; Example 24, 0.1 mg/kg IP alone",did not affect eVF responses
same,"Effect on cisplatin-induced tactile allodynia (eVF paw withdrawal), in words","[4]; Example 24, 2.5 mg/kg IP alone",fully attenuated tactile allodynia
same,"Conditioned place preference scores, in words",[5]; morphine treated vs control group (vehicle+saline),higher preference scores compared to the control group
CBD-Mono-Valinate [CBD-VAL-MONO],Maximum solubility achieved in Tocrisolve,[1],1.41 % w/v
same,Maximum solubility achieved in Tocrisolve (In terms of CBD),[1],(1.07) % w/v

# — patent US11337950B2, “Biologically active cannabidiol analogs” (University of Mississippi, priority 2016, dated 2022)
